Measured values: article PMC12040169 (PLOS Biology, 2025)

Assay: in vitro
Details: human, hela cells, % viability

Structure (SMILES): CN(C)[C@@H]1CN(Cc2ccc(O)cc2)C[C@H]1c1cn(C)c2ccccc12 [CBK284952]
- viability at 28.5 h, 10 µM: 108%

Structure (SMILES): Cc1ccc(C2CCCN2C(=O)C(C)Cn2cncn2)cc1C (stereo not drawn) [CBK282213]
- viability at 28.5 h, 10 µM: 98.9%

Structure (SMILES): O=C(NCCc1c[nH]c2ccc(F)cc12)Nc1ccccc1 [CBK269964]
- viability at 28.5 h, 10 µM: 107%

Structure (SMILES): CC1(Cc2ccn[nH]2)SCCCS1 [CBK019308C]
- viability at 28.5 h, 10 µM: 109%

Structure (SMILES): C=CCn1c(SCC(=O)Nc2cccc(F)c2)nnc1-c1ccccc1O [CBK269620]
- viability at 28.5 h, 10 µM: 83%

Structure (SMILES): COc1ccc(S(=O)(=O)NCCCN2CCOCC2)c(C)c1C [CBK266519]
- viability at 28.5 h, 10 µM: 110%

Structure (SMILES): O/N=C1\CC(c2ccccc2)Oc2ccc(Cl)cc21 (stereo not drawn) [CBK288370]
- viability at 28.5 h, 10 µM: 91.1%

Structure (SMILES): O=C(O)CC(Cc1ccccc1)c1ccc(Cl)cc1 (stereo not drawn) [CBK270231]
- viability at 28.5 h, 10 µM: 89.6%

Structure (SMILES): Cc1nn(C)c(N2CCNCC2)c1NC(=O)COc1ccccc1 [CBK050249T]
- viability at 28.5 h, 10 µM: 103%

Structure (SMILES): N#Cc1ccc(CN2C[C@@H]3OCC(=O)N[C@@H]3C2)cc1 [CBK289261]
- viability at 28.5 h, 10 µM: 103%

Structure (SMILES): O=C(Oc1cccc(NC(=O)c2ccco2)c1)c1cccc(S(=O)(=O)N2CCOCC2)c1 [CBK262272]
- viability at 28.5 h, 10 µM: 97.2%

Structure (SMILES): C=CCOc1ccc2ccccc2c1CNc1nn[nH]n1 [CBK267619]
- viability at 28.5 h, 10 µM: 92.8%

Structure (SMILES): O=C(O)c1ccc(/C=N/NC(=O)c2ccco2)cc1 [CBK263569]
- viability at 28.5 h, 10 µM: 90.5%

Structure (SMILES): O=C(/C=C/c1cn(C2CC(O)C(CO)O2)c(=O)[nH]c1=O)NCCCCCCNC(=O)C(F)(F)F (stereo not drawn) [CBK201310]
- viability at 28.5 h, 10 µM: 94.3%

Structure (SMILES): CN1CCN(c2nc3c([nH]2)c(=O)n(C)c(=O)n3C)CC1 [CBK269976]
- viability at 28.5 h, 10 µM: 86.1%

Structure (SMILES): CCOC(=O)C1(Cc2cc(-c3cccc(F)c3)no2)CCCNC1 (stereo not drawn) [CBK284578]
- viability at 28.5 h, 10 µM: 87.3%

Structure (SMILES): Cc1c(C(=O)N(C)CC(F)(F)F)nnn1-c1ccc(F)cc1 [CBK282214]
- viability at 28.5 h, 10 µM: 89.8%

Structure (SMILES): Cn1cc(C2CNCCN2C(=O)CCCc2csc3ccccc23)cn1 (stereo not drawn) [CBK304274C]
- viability at 28.5 h, 10 µM: 89.9%

Structure (SMILES): c1ccc(Oc2cccc(CN3CCOCC3)c2)cc1 [CBK261870]
- viability at 28.5 h, 10 µM: 95.3%

Structure (SMILES): CCOc1cccc(-c2cn3ccnc3c(NC3CC3)n2)c1 [CBK066736]
- viability at 28.5 h, 10 µM: 91.6%

Structure (SMILES): CC(Sc1ccccc1)C(=O)NCCCN1CCOCC1 (stereo not drawn) [CBK269214]
- viability at 28.5 h, 10 µM: 106%

Structure (SMILES): Cn1nnnc1SCCNC(=O)Nc1cccc(CN2CCCCC2)c1 [CBK306872]
- viability at 28.5 h, 10 µM: 97.3%

Structure (SMILES): COc1cccc(CN2C(=O)CC3(C2=O)C(=O)N(CC(=O)c2ccccc2)c2ccccc23)c1 (stereo not drawn) [CBK075984]
- viability at 28.5 h, 10 µM: 88.9%

Structure (SMILES): O=C1NCCN/C1=C\C(=O)c1ccc(Br)cc1 [CBK261427]
- viability at 28.5 h, 10 µM: 90.2%

Structure (SMILES): Nc1nc2c(ccn2[C@@H]2O[C@H](CO)[C@H](O)C2O)c(=O)[nH]1 (stereo partly drawn) [CBK201190]
- viability at 28.5 h, 10 µM: 92%

Structure (SMILES): CCN(CC(=O)NCc1ccc(Cl)cc1)S(=O)(=O)c1ccc(OC)cc1 [CBK305836]
- viability at 28.5 h, 10 µM: 92.6%

Structure (SMILES): COC(=O)[C@@H]1Cc2ncn(C(C)C)c2CN1C(=O)C1CCCCC1 [CBK288989]
- viability at 28.5 h, 10 µM: 98.9%

Structure (SMILES): CSc1nsc(SCc2cnc(C)nc2N)n1 [CBK268337]
- viability at 28.5 h, 10 µM: 105%

Structure (SMILES): O=C(NOCc1ccccc1)c1nn(-c2ncccn2)c2ccccc12 [CBK048503]
- viability at 28.5 h, 10 µM: 93.1%

Structure (SMILES): CCOC(=O)c1c(NC(C)=O)nc2n1CCS2 [CBK023488]
- viability at 28.5 h, 10 µM: 98.5%

Structure (SMILES): O=C(CSc1nc2ccccc2[nH]1)Nc1cccc(C(=O)O)c1 [CBK263225]
- viability at 28.5 h, 10 µM: 105%

Structure (SMILES): CCCn1nc(C)c(-c2cncn2CC(C)N2CCC(C)CC2)c1C (stereo not drawn) [CBK281791]
- viability at 28.5 h, 10 µM: 85.2%

Structure (SMILES): Cc1sc(NC(=O)CC(C)(C)CC(=O)Nc2sc(C)c(C)c2C(=O)O)c(C(=O)O)c1C [CBK296094]
- viability at 28.5 h, 10 µM: 98.7%

Structure (SMILES): Cc1ncsc1C(=O)NCc1ccc(S(=O)(=O)N2CCCCC2)cc1 [CBK305556]
- viability at 28.5 h, 10 µM: 89.9%

Structure (SMILES): Cc1cc(C)n(CC(=O)Nc2cccc(CCc3ccncc3)c2)c(=O)n1 [CBK285555]
- viability at 28.5 h, 10 µM: 105%

Structure (SMILES): O=C(NNC(=O)c1ccccc1C(=O)O)c1cccc(Cl)c1 [CBK261658]
- viability at 28.5 h, 10 µM: 94.7%
